From patent US10208019B2, “GLP-1 receptor agonists and uses thereof” (Pfizer Inc., priority 2016, dated 2019)

Biological target: human GLP-1R (Homo sapiens, UniProt P43220, G168S)
Assay: CHO GLP-1R Clone H6—Assay 1: HTRF cAMP cell-based functional agonist assay (high GLP-1R density)
Conditions: for EC50: read-out: Assay 1 EC50, CHO GLP-1R Clone H6, cAMP HTRF, geometric mean; for Emax: read-out: Assay 1 Emax (%), CHO GLP-1R Clone H6
[1] = relative to saturating concentration of full agonist GLP-1 (1 μM), arithmetic mean

Chain of human GLP-1R (P43220 24-463 G168S limits assumed): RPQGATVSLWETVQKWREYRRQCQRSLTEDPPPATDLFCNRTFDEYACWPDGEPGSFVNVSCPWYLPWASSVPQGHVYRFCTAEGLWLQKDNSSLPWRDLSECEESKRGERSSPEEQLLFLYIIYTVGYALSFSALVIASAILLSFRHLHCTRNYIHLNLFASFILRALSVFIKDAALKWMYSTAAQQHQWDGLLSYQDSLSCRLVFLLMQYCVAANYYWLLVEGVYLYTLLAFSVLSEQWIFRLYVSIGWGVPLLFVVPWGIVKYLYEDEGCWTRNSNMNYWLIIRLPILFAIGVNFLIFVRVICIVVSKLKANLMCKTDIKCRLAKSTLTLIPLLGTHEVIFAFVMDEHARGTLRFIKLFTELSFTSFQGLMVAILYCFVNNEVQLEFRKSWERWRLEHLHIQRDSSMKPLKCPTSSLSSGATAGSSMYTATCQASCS

SMILES	EC50 [µM]	Emax [1] [%]	Assay 1 Emax (%) (CHO GLP-1R Clone H6, relative to saturating concentration of full agonist GLP-1 (1 μM), arithmetic mean)
Cn1c(CN2CCC(c3cccc(OCc4ccc(C(F)(F)F)cc4F)n3)CC2)nc2ccc(C(=O)O)cc21 [Example 9A-02, 2-{[4-(6-{[2-fluoro-4-(trifluoromethyl)benzyl]oxy}pyridin-2-yl)piperidin-1-yl]methyl}-1-methyl-1H-benzimidazole-6-carboxylic acid]	0.079	81	–
Cn1c(CN2CCC(c3cccc(OCc4ccc(F)cc4F)n3)CC2)nc2ccc(C(=O)O)cc21 [Example 9A-03, 2-[(4-{6-[(2,4-difluorobenzyl)oxy]pyridin-2-yl}piperidin-1-yl)methyl]-1-methyl-1H-benzimidazole-6-carboxylic acid]	0.2	79	–
Cn1c(CN2CCC(c3cccc(OCc4c(F)cccc4F)n3)CC2)nc2ccc(C(=O)O)cc21 [Example 9A-04, 2-[(4-{6-[(2,6-difluorobenzyl)oxy]pyridin-2-yl}piperidin-1-yl)methyl]-1-methyl-1H-benzimidazole-6-carboxylic acid]	2.9	89	–
Cn1c(CN2CCC(c3cccc(OCc4ccc(Cl)cc4)n3)CC2)nc2ccc(C(=O)O)cc21 [Example 9A-05, 2-[(4-{6-[(4-chlorobenzyl)oxy]pyridin-2-yl}piperidin-1-yl)methyl]-1-methyl-1H-benzimidazole-6-carboxylic acid]	2.7	85	–
Cn1c(CN2CCC(c3cccc(OCc4ccccc4F)n3)CC2)nc2ccc(C(=O)O)cc21 [Example 9A-06, 2-[(4-{6-[(2-fluorobenzyl)oxy]pyridin-2-yl}piperidin-1-yl)methyl]-1-methyl-1H-benzimidazole-6-carboxylic acid]	0.87	82	–
Cn1c(CN2CCC(c3cccc(OCc4cccc(F)c4F)n3)CC2)nc2ccc(C(=O)O)cc21 [Example 9A-08, 2-[(4-{6-[(2,3-difluorobenzyl)oxy]pyridin-2-yl}piperidin-1-yl)methyl]-1-methyl-1H-benzimidazole-6-carboxylic acid]	2.4	87	–
Cn1c(CN2CCC(c3cccc(OCc4ccc(OC(F)(F)F)cc4)n3)CC2)nc2ccc(C(=O)O)cc21 [Example 9A-09, 1-methyl-2-{[4-(6-{[4-(trifluoromethoxy)benzyl]oxy}pyridin-2-yl)piperidin-1-yl]methyl}-1H-benzimidazole-6-carboxylic acid]	0.88	59	–
Cn1c(CN2CCC(c3cccc(OCc4ccccc4OC(F)(F)F)n3)CC2)nc2ccc(C(=O)O)cc21 [Example 9A-10, 1-methyl-2-{[4-(6-{[2-(trifluoromethoxy)benzyl]oxy}pyridin-2-yl)piperidin-1-yl]methyl}-1H-benzimidazole-6-carboxylic acid]	4.5	48	–
Cc1ccccc1COc1cccc(C2CCN(Cc3nc4ccc(C(=O)O)cc4n3C)CC2)n1 [Example 9A-11, 1-methyl-2-[(4-{6-[(2-methylbenzyl)oxy]pyridin-2-yl}piperidin-1-yl)methyl]-1H-benzimidazole-6-carboxylic acid]	1.6	83	–
Cn1c(CN2CCC(c3cccc(OCc4cccc(C#N)c4)n3)CC2)nc2ccc(C(=O)O)cc21 [Example 9A-12, 2-[(4-{6-[(3-cyanobenzyl)oxy]pyridin-2-yl}piperidin-1-yl)methyl]-1-methyl-1H-benzimidazole-6-carboxylic acid]	> 17	100	–
Cn1c(CN2CCC(c3cccc(OCc4ccc(C(F)(F)F)cc4)n3)CC2)nc2ccc(C(=O)O)cc21 [Example 9A-13, 1-methyl-2-{[4-(6-{[4-(trifluoromethyl)benzyl]oxy}pyridin-2-yl)piperidin-1-yl]methyl}-1H-benzimidazole-6-carboxylic acid]	0.17	68	–
Cn1c(CN2CCC(c3cccc(OCc4cc(F)ccc4F)n3)CC2)nc2ccc(C(=O)O)cc21 [Example 9A-14, 2-[(4-{6-[(2,5-difluorobenzyl)oxy]pyridin-2-yl}piperidin-1-yl)methyl]-1-methyl-1H-benzimidazole-6-carboxylic acid]	1.8	93	–
CN(C)CCn1c(CN2CCC(c3cccc(OCc4ccc(Cl)cc4F)n3)CC2)nc2ccc(C(=O)O)cc21 [Example 10A-11]	0.075	69	–
CN1CC(Cn2c(CN3CCC(c4cccc(OCc5ccc(Cl)cc5F)n4)CC3)nc3ccc(C(=O)O)cc32)C1 [Example 10A-19]	–	100	–
Cc1nnc(CCn2c(CN3CCC(c4cccc(OCc5ccc(Cl)cc5F)n4)CC3)nc3ccc(C(=O)O)cc32)o1 [Example 10A-28]	0.19	71	–
Cc1nnc(Cn2c(CN3CCC(c4cccc(OCc5ccc(Cl)cc5F)n4)CC3)nc3ccc(C(=O)O)cc32)o1 [Example 10A-29]	0.39	82	–
Cn1cnc(Cn2c(CN3CCC(c4cccc(OCc5ccc(Cl)cc5F)n4)CC3)nc3ccc(C(=O)O)cc32)c1 [Example 10A-30]	0.55	71	–
Cn1ccnc1Cn1c(CN2CCC(c3cccc(OCc4ccc(Cl)cc4F)n3)CC2)nc2ccc(C(=O)O)cc21 [Example 10A-38]	0.13	72	–
CCn1c(CN2CCC(c3cccc(OCc4ccc(Cl)cc4F)n3)CC2)nc2ccc(C(=O)O)cc21 [Example 10A-39]	0.17	69	–
CC(C)n1c(CN2CCC(c3cccc(OCc4ccc(Cl)cc4F)n3)CC2)nc2ccc(C(=O)O)cc21 [Example 10A-40]	1.2	–	53
CC(C)(C)n1cnnc1Cn1c(CN2CCC(c3cccc(OCc4ccc(Cl)cc4F)n3)CC2)nc2ccc(C(=O)O)cc21 [Example 10A-46]	1.7	80	–
C[C@H]1CN(c2cccc(OCc3ccc(C#N)cc3)n2)CCN1Cc1nc2ccc(C(=O)O)cc2n1C[C@@H]1CCO1 [Example 10A-49, 2-{[(2S)-4-{6-[(4-cyanobenzyl)oxy]pyridin-2-yl}-2-methylpiperazin-1-yl]methyl}-1-[(2S)-oxetan-2-ylmethyl]-1H-benzimidazole-6-carboxylic acid]	0.00056	73	–
O=C(O)c1ccc2nc(CN3CCC(c4cccc(OCc5ccc(Cl)cc5F)n4)CC3)n(CCO)c2c1 [Example 10A-50]	0.29	64	–
CCc1nc(Cn2c(CN3CCC(c4cccc(OCc5ccc(Cl)cc5F)n4)CC3)nc3ccc(C(=O)O)cc32)no1 [Example 10A-51]	0.39	72	–
CCc1noc(Cn2c(CN3CCC(c4cccc(OCc5ccc(Cl)cc5F)n4)CC3)nc3ccc(C(=O)O)cc32)n1 [Example 10A-52]	1.3	79	–
CC1(Cn2c(CN3CCC(c4cccc(OCc5ccc(Cl)cc5F)n4)CC3)nc3ccc(C(=O)O)cc32)CCO1 (stereo not shown) [Example 10A-53]	0.0032	68	–
O=C(O)c1ccc2nc(CN3CCC(c4cccc(OCc5ccc(Cl)cc5F)n4)CC3)n(Cc3cnoc3)c2c1 [Example 10A-68]	0.14	76	–
O=C(O)c1ccc2nc(CN3CCC(c4cccc(OCc5ccc(Cl)cc5F)n4)CC3)n(Cc3ncon3)c2c1 [Example 10A-70]	0.005	65	–
